The first experiment addresses T1, EZH2 within the PRC2 complex (Homo sapiens, UniProt Q15910).
T1 construct: FLAG; made in house; host or cells: Sf9 cells
Description: EZH2 methyltransferase scintillation proximity assay (SPA) with PRC2 complex. As to conditions: 3H-SAM methyl transfer to Histone H3 of HeLa mononucleosomes; read-out: EZH2 pIC50 (converted). Type of experiment: biochemical. Here is the method:
Compounds contained herein were evaluated for their ability to inhibit the methyltransferase activity of EZH2 within the PRC2 complex. Human PRC2 complex was prepared by co-expressing each of the 5 member proteins (FLAG-EZH2, EED, SUZ12, RbAp48, AEBP2) in Sf9 cells followed by co-purification. Enzyme activity was measured in a scintillation proximity assay (SPA) where a tritiated methyl group is transferred from 3H-SAM to a lysine residue on Histone H3 of a mononucleosome, purified from HeLa cells. Mononucleosomes were captured on SPA beads and the resulting signal is read on a ViewLux plate reader.
Part A. Compound Preparation
• 1. Prepare 10 mM stock of compounds from solid in 100% DMSO. • 2. Set up an 11-point serial dilution (1:3 dilution, top concentration 10 mM) in 100% DMSO for each test compound in a 384 well plate leaving columns 6 and 18 for DMSO controls. • 3. Dispense […] of compound from the dilution plate into reaction plates (Grenier Bio-One, 384-well, Cat #784075). Part B. Reagent Preparation Prepare the following solutions: • 1. 50 mM Tris-HCl, pH 8: Per 1 L of base buffer, combine 1 M Tris-HCl, pH 8 (50 mL) and distilled water (950 mL). • 2. […] 2× Enzyme Solution: Per 10 mL of 2× Enzyme Solution, combine 1× Assay Buffer and PRC2 complex to provide a final enzyme concentration of 10 nM. • 4. SPA Bead Suspension: Per 1 mL of SPA Bead Suspension, combine PS-PEI coated LEADSeeker beads (40 mg) and ddH2O (1 mL) to provide a final concentration of 40 mg/mL. • 5. 2× Substrate Solution: Per 10 mL of 2× Substrate Solution, combine 1× Assay Buffer (9728.55 uL), 800 ug/mL mononucleosomes (125 uL), 1 mM cold SAM (4 uL), and 7.02 uM 3H-SAM (142.45 uL; 0.55 mCi/mL) to provide a final concentration of 5 ug/mL nucleosomes, 0.2 uM cold SAM, and 0.05 uM 3H-SAM. • 6. 2.67× Quench/Bead Mixture: Per 10 mL of 2.67× Quench/Bead Mixture, combine ddH2O (9358 uL), 10 mM cold SAM (267 uL), 40 mg/mL Bead Suspension (375 uL) to provide a final concentration of 100 uM cold SAM and 0.5 mg/mL SPA beads. Part C. Assay Reaction in 384-well Grenier Bio-One Plates Compound Addition • 1. Dispense […] of 100× Compound to test wells (as noted above). • 2. Dispense […] of 100% DMSO to columns 6 & 18 for high and low controls, respectively. Assay • 1. […] Dispense 5 uL/well of 2× Enzyme Solution to columns 1-17, 19-24. • 3. Spin assay plates for ˜1 minute at 500 rpm. • 4. Stack the assay plates, covering the top plate. • 5. Incubate the compound/DMSO with the enzyme for 30 minutes at room temperature. • 6. Dispense 5 uL/well of 2× Substrate Solution to columns 1-24. • 7. Spin assay plates for ˜1 minute at 500 rpm. • 8. Stack the assay plates, covering the top plate. • 9. Incubate the assay plates at room temperature for 1 hour. Quench/Bead Addition • 1. Dispense 5 uL/well of the 3× Quench/Bead Mixture to columns 1-24. • 2. Seal the top of each assay plate with adhesive TopSeal. • 3. Spin assay plates for ˜1 minute at 500 rpm. • 4. Equilibrate the plates for >20 min. Read Plates • 1. Read the assay plates on the Viewlux Plate Reader utilizing the 613 nm emission filter with a 300 s read time. Reagent addition can be done manually or with automated liquid handler. • The final DMSO concentration in this assay is 1%. • The positive control is in column 6; negative control is in column 18. • Final starting concentration of compounds is 100 μM. Part D. Data Analysis
Percent inhibition was calculated relative to the DMSO control for each compound concentration and the resulting values were fit using standard IC50 fitting parameters within the ABASE data fitting software package.
T1 sequence (Q15910 whole entry): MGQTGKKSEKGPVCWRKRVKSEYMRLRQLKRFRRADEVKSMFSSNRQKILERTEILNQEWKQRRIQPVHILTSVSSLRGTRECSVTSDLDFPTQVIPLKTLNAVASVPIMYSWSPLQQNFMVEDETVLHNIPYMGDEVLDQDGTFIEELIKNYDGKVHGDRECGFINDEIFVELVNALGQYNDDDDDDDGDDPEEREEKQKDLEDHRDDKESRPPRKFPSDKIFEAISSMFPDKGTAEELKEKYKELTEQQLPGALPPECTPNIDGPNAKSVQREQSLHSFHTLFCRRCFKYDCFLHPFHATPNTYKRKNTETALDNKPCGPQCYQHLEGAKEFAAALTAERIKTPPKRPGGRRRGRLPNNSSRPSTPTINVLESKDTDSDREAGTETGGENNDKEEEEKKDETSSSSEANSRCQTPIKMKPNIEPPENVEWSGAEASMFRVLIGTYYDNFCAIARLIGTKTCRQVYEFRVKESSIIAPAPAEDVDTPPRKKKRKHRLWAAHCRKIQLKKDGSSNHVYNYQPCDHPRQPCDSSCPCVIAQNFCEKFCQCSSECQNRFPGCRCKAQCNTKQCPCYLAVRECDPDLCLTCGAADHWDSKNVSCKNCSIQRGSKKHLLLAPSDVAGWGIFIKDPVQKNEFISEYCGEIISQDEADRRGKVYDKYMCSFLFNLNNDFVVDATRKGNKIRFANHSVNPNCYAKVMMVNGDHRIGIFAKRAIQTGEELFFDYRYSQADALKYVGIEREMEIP
T1 sequence (O75530 whole entry partner): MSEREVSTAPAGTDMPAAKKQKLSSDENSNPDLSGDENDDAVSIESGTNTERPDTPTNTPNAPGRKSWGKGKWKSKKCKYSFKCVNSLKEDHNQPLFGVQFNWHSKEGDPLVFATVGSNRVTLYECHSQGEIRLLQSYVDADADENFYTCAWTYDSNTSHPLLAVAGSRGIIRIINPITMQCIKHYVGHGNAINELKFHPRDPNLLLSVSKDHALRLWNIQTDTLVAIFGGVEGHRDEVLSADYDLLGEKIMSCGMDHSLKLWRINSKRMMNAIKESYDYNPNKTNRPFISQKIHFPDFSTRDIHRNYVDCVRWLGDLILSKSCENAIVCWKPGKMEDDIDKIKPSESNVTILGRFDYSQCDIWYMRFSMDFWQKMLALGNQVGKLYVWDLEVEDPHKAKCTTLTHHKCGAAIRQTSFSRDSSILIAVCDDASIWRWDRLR
T1 sequence (Q15022 whole entry partner): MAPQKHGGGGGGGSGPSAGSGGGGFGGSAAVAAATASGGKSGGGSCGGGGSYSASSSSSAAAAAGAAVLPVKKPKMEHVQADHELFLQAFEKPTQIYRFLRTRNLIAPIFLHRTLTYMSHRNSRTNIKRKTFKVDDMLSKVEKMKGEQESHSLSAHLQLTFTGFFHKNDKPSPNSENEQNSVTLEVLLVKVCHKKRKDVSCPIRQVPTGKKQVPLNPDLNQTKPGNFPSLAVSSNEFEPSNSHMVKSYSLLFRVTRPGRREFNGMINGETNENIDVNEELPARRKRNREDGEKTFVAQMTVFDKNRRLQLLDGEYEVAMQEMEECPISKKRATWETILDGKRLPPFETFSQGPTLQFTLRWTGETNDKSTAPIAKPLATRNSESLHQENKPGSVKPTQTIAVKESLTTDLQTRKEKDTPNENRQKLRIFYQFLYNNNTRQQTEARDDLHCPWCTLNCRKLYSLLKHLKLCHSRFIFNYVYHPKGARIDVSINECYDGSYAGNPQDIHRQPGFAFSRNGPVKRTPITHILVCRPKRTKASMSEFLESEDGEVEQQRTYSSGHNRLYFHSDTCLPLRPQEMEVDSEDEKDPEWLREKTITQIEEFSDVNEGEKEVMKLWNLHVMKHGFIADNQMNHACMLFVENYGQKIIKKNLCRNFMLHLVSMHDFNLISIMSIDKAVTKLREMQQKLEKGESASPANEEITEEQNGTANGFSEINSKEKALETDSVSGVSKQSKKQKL
T1 sequence (Q09028 whole entry partner): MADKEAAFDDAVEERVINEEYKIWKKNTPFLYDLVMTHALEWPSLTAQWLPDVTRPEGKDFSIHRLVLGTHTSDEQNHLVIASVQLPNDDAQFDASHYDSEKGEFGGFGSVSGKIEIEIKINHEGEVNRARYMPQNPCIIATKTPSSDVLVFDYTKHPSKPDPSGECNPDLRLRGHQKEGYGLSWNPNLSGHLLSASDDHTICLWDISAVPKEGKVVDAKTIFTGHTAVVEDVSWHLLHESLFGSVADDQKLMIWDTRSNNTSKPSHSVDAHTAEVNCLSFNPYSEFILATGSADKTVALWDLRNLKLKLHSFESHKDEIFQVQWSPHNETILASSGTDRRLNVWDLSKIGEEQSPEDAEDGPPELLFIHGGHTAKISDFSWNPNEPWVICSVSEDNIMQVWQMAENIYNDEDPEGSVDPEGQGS
T1 sequence (Q6ZN18 whole entry partner): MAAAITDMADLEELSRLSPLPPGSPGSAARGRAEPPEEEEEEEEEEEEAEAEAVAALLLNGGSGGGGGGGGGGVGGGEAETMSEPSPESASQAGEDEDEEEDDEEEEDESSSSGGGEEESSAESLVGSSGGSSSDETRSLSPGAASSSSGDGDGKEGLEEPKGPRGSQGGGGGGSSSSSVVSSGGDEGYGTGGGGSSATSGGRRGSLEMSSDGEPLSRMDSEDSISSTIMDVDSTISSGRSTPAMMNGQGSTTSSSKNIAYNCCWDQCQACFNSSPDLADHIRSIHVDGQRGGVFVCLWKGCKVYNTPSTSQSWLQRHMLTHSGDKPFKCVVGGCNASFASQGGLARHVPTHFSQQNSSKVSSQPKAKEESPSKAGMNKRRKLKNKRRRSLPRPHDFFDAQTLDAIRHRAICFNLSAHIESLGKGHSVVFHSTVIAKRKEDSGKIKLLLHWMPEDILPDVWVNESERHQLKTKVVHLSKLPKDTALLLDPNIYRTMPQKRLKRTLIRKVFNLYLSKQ
`Cc1cc(C)c(CNC(=O)c2cc(NC(=O)N3CCN(C)CC3)cc3c2c(C)cn3C(C)C)c(=O)[nH]1` [Example 362, N-[(4,6-dimethyl-2-oxo-1,2-dihydro-3-pyridinyl)methyl]-3-methyl-1-(1-methylethyl)-6-{[(4-methyl-1-piperazinyl)carbonyl]amino}-1H-indole-4-carboxamide]: the IC50 was 129 nM. Turning to `Cc1cc(C)c(CNC(=O)c2cc(-c3ccc(CN4C[C@@H](C)O[C@@H](C)C4)nc3)cc3c2c(C)cn3C(C)C)c(=O)[nH]1` [Example 348, 6-(6-{[(2R,6S)-2,6-dimethyl-4-morpholinyl]methyl}-3-pyridinyl)-N-[(4,6-dimethyl-2-oxo-1,2-dihydro-3-pyridinyl)methyl]-3-methyl-1-(1-methylethyl)-1H-indole-4-carboxamide], the IC50 is 36.3 nM.

On to `Cc1cc(C)c(CNC(=O)c2cc(-c3ccc(CN4CCOCC4)nc3)cc3c2c(C)cn3C(C)C)c(=O)[nH]1` [Example 350, N-[(4,6-dimethyl-2-oxo-1,2-dihydro-3-pyridinyl)methyl]-3-methyl-1-(1-methylethyl)-6-[6-(4-morpholinylmethyl)-3-pyridinyl]-1H-indole-4-carboxamide], for which the IC50 is 22.9 nM. Still for that read-out and setting: with `Cc1cc(C)c(CNC(=O)c2cc(-c3ccc(CN4CCN(C)CC4)nc3)cc3c2c(C)cn3C(C)C)c(=O)[nH]1` [Example 349, N-[(4,6-dimethyl-2-oxo-1,2-dihydro-3-pyridinyl)methyl]-3-methyl-1-(1-methylethyl)-6-{6-[(4-methyl-1-piperazinyl)methyl]-3-pyridinyl}-1H-indole-4-carboxamide] the figure was 25.1 nM; with `Cc1cc(C)c(CNC(=O)c2cc(Nc3ccc(N4CCN(C)CC4)nc3)cc3c2c(C)cn3C(C)C)c(=O)[nH]1` [Example 361, N-[(4,6-dimethyl-2-oxo-1,2-dihydro-3-pyridinyl)methyl]-3-methyl-1-(1-methylethyl)-6-{[6-(4-methyl-1-piperazinyl)-3-pyridinyl]amino)-1H-indole-4-carboxamide], 55 nM; with `Cc1cc(C)c(CNC(=O)c2cc(B(O)O)cc3c2c(C)cn3C(C)C)c(=O)[nH]1` [Example 358, [4-({[(4,6-dimethyl-2-oxo-1,2-dihydro-3-pyridinyl)methyl]amino)carbonyl)-3-methyl-1-(1-methylethyl)-1H-indol-6-yl]boronic acid], 468 nM.

Still in this experiment, the particulars now being: EZH2 inhibition, foregoing or analogous assay; unit inferred; read-out: IC50.
With `CCC(C)n1cc(C)c2c(C(=O)NCc3c(C)cc(C)[nH]c3=O)cc(Br)cc21` (centres unmarked) [Ex 266, 6-bromo-1-(sec-butyl)-N-((4,6-dimethyl-2-oxo-1,2-dihydropyridin-3-yl)methyl)-3-methyl-1H-indole-4-carboxamide], the IC50 was 25 nM. Still for that read-out and setting: with `CC[C@H](C)n1cc(C)c2c(C(=O)NCc3c(C)cc(C)[nH]c3=O)cc(-c3cccc(CN(C)C)c3)cc21` [Ex 273, 6-{3-[(Dimethylamino)methyl]phenyl}-N-[(4,6-dimethyl-2-oxo-1,2-dihydro-3-pyridinyl)methyl]-3-methyl-1-[(1S)-1-methylpropyl]-1H-indole-4-carboxamide] the figure was 10 nM; with `CC[C@@H](C)n1cc(C)c2c(C(=O)NCc3c(C)cc(C)[nH]c3=O)cc(-c3cccc(CN(C)C)c3)cc21` [Ex 274, 6-{3-[(dimethylamino)methyl]phenyl}-N-[(4,6-dimethyl-2-oxo-1,2-dihydro-3-pyridinyl)methyl]-3-methyl-1-[(1R)-1-methylpropyl]-1H-indole-4-carboxamide], 32 nM. On the same count and under the same terms, the same measure for `Cc1cc(Cn2cccn2)c(CNC(=O)c2cc(Br)cc3c2c(C)cn3C(C)C)c(=O)[nH]1` [Ex 234, 6-bromo-3-methyl-1-(1-methylethyl)-N-{[6-methyl-2-oxo-4-(1H-pyrazol-1-ylmethyl)-1,2-dihydro-3-pyridinyl]methyl}-1H-indole-4-carboxamide]: 1000 nM; for `Cc1cc(C)c(CNC(=O)c2cc(-c3ccc(N4CCNC(C)(C)C4)nc3)cc3c2c(C)cn3C(C)C)c(=O)[nH]1` [Ex 339, N-[(4,6-dimethyl-2-oxo-1,2-dihydro-3-pyridinyl)methyl]-6-[6-(3,3-dimethyl-1-piperazinyl)-3-pyridinyl]-3-methyl-1-(1-methylethyl)-1H-indole-4-carboxamide]: 13 nM. The same measure, in the same setting: the same measure for `Cc1cc(C)c(CNC(=O)c2cc(-c3ccc(OCCN(C)C)cc3)cc3c2c(C)cn3C(C)C)c(=O)[nH]1` [Ex 174, 6-(4-{[2-(dimethylamino)ethyl]oxy}phenyl)-N-[(4,6-dimethyl-2-oxo-1,2-dihydro-3-pyridinyl)methyl]-3-methyl-1-(1-methylethyl)-1H-indole-4-carboxamide]: 18 nM; for `CC[C@@H](C)n1cc(C)c2c(C(=O)NCc3c(C)cc(C)[nH]c3=O)cc(Br)cc21` [Ex 268, (R)-6-Bromo-1-(sec-butyl)-N-((4,6-dimethyl-2-oxo-1,2-dihydropyridin-3-yl)methyl)-3-methyl-1H-indole-4-carboxamide]: 40 nM. For the compound `Cc1cc(C)c(CNC(=O)c2cc(Br)cc3c2c(C)cn3CC(C)N(C)C)c(=O)[nH]1` (centres unmarked) [Ex 78, 6-bromo-N-((4,6-dimethyl-2-oxo-1,2-dihydropyridin-3-yl)methyl)-1-(2-(dimethylamino)propyl)-3-methyl-1H-indole-4-carboxamide], the IC50 was 1800 nM. Still for that read-out and setting: the same measure for `CCC(C)n1cc(C)c2c(C(=O)NCc3c(C)cc(C)[nH]c3=O)cc(-c3cccc(CN(C)C)c3)cc21` (centres unmarked) [Ex 272, 1-(sec-Butyl)-N-((4,6-dimethyl-2-oxo-1,2-dihydropyridin-3-yl)methyl)-6-(3-((dimethylamino)methyl)phenyl)-3-methyl-1H-indole-4-carboxamide]: 13 nM. The same measure, in the same setting: the same measure for `Cc1cc(C)c(CNC(=O)c2cc(-c3ccc4[nH]cnc4c3)cc3c2c(C)cn3C(C)C)c(=O)[nH]1` [Ex 211, 6-(1H-benzimidazol-5-yl)-N-[(4,6-dimethyl-2-oxo-1,2-dihydro-3-pyridinyl)methyl]-3-methyl-1-(1-methylethyl)-1H-indole-4-carboxamide]: 14 nM; for `Cc1cc(C)c(CNC(=O)c2cc(-c3cc4[nH]ncc4cn3)cc3c2c(C)cn3C(C)C)c(=O)[nH]1` [Ex 244, N-((4,6-dimethyl-2-oxo-1,2-dihydropyridin-3-yl)methyl)-1-isopropyl-3-methyl-6-(1H-pyrazolo[4,3-c]pyridin-6-yl)-1H-indole-4-carboxamide]: 29 nM; for `CC[C@H](C)n1cc(C)c2c(C(=O)NCc3c(C)cc(C)[nH]c3=O)cc(Br)cc21` [Ex 267, (S)-6-bromo-1-(sec-butyl)-N-((4,6-dimethyl-2-oxo-1,2-dihydropyridin-3-yl)methyl)-3-methyl-1H-indole-4-carboxamide]: 20 nM. Same read-out and setting: with `Cc1cc(C)c(CNC(=O)c2cc(-c3ccc(N4CCNCC4)nc3)cc3c2c(C)cn3C2CCCC2)c(=O)[nH]1` [Ex 275, 1-cyclopentyl-N-((4,6-dimethyl-2-oxo-1,2-dihydropyridin-3-yl)methyl)-3-methyl-6-(6-(piperazin-1-yl)pyridin-3-yl)-1H-indole-4-carboxamide] the figure was 3 nM.

As for `Cc1cc(C)c(CNC(=O)c2cc(-c3ccc4c(N)n[nH]c4c3)cc3c2c(C)cn3C(C)C)c(=O)[nH]1` [Ex 212, 6-(3-amino-1H-indazol-6-yl)-N-[(4,6-dimethyl-2-oxo-1,2-dihydro-3-pyridinyl)methyl]-3-methyl-1-(1-methylethyl)-1H-indole-4-carboxamide], the IC50 amounted to 9 nM.

Values taken from patent US8975291B2, “Indoles” (GlaxoSmithKline LLC, priority 2010, dated 2015).
